Data as given in patent US5206382A, “Indole derivatives, pharmaceutical compositions and methods of treating neurological and psychiatric disorders” (Fidia Georgetown Institute for the Neurosciences, priority 1991, dated 1993).

Legend:
[1] = target: T1, MBR (mitochondrial benzodiazepine recognition site) (Rattus norvegicus, UniProt P16257); assay: Displacement of ^3 H-RO5-4864 from mitochondrial BZD recognition site (MBR); type: binding, Sprague Dawley rat; details: displacement of 1 nM ^3 H-RO5-4864, rat mitochondria; range in parentheses
T1 construct: Brain and adrenal glands were removed and homogenized with Polytron; from tissue; host or cells: mitochondrial fraction of Sprague Dawley rat brain and adrenal glands
Method: (§1) Mitochondrial Preparation: Sprague Dawley rats (200-250 gr.) were killed by decapitation. Brain and adrenal glands were removed and homogenized with Polytron for 15 minutes in ice cold buffer (10 mM Na/KPO4, 0.32M sucrose, pH 7.4). The homogenate was centrifuged for 15 minutes at 6,500 xg at 4° C. The resulting supernatant was centrifuged for 15 minutes at […] at 4° C. The pellet was suspended in buffer (20 times) by gentle homogenization and centrifuged at 10,000 xg at 4° C. for 15 minutes. The washed mitochondrial pellet was stored at -70° C.
(§2) For the binding assay the mitochondrial fraction was diluted with 50 mM Na/KPO4 buffer (pH 7.4) to give a final protein concentration of […] in 100 μl buffer. This suspension was incubated with 1 nM of ^3 H PK-11195 or ^3 H RO 5-4864 (50 μl) with or without 10/μM unlabeled PK-11195 or RO 5-4864 to assess the extent of total and non-specific binding. Different amounts of indole derivatives were added to the incubation medium in a volume of 50 μl. After incubation for 60 minutes at 4° C., samples were filtered and the radioactivity was measured in a scintillation counter.

[2] = target: ^3 H-GABA binding (crude synaptic membrane); assay: ^3 H-GABA binding, crude synaptic membranes; design: species or system Sprague Dawley rat; details: 10 nM ^3 H-GABA, rat cerebellum membranes
Method: (§3) Crude Synaptic Membrane Preparation: Sprague Dawley rats (200-250 gr.) were killed by decapitation. The cerebella were removed and incubated for 20 minutes in ice cold double distilled water after homogenization with Polytron. The homogenate was centrifuged at 18,000 xg at 4° C. for 10 minutes. The pellet was suspended in ice-cold buffer 50 mM Na/KPO4(pH 7.4) and centrifuged at 18,000 xg at 4° C. for 10 minutes. After two other centrifugations, the membranes were suspended in 5 ml of buffer and the proteins were measured.
(§4) The membranes were diluted with 50 mM Na/KPO4 buffer (pH 7.4) to a concentration of 150 μg of protein/ml, and 150 μl aliquots of the suspension were incubated with 50 μl of the different ligands to be tested: ^3 H-ZOLPIDEM(2 nM), ^3 H-FLUMAZENIL (2 nM), ^3 H-GABA(10 nM), ^3 H-MK 801(5 nM), ^3 H-KETANSERIN(1 nM), ^3 H-GLYCINE(20 nM), ^3 H-SPIPERONE(1 nM), ^3 H-AMPA(10 nM), ^3 H-3-PPP(1 nM), and ^3 H-NALOXONE(1 nM). Non-specific binding was assessed by displacing with 10 to 1000/μM of cold ligand. The different indole derivatives were added in a volume of 50 μl in a concentration varying from 10^-9 to 10^-3 M. The results are reported in Table I hereinbelow.

[3] = target: T1, MBR (mitochondrial benzodiazepine recognition site); assay: Displacement of ^3 H-PK11195 from mitochondrial BZD recognition site (MBR); type: binding, Sprague Dawley rat; details: for IC50: displacement of 1 nM ^3 H-PK11195, rat mitochondria, range in parentheses; for ^3 H-PK11195 / ^3 H-RO5-4864: ratio of the two IC50 values
Method: as §1, §2

[4] = target: T2, BZD binding site located on the GABAA receptor (Rattus norvegicus, UniProt P18508+P62813); assay: ^3 H-FLUMAZENIL binding, crude synaptic membranes; design: species or system Sprague Dawley rat; details: 2 nM ^3 H-FLUMAZENIL, rat cerebellum membranes
T2 construct: The cerebella were removed and incubated for 20 minutes in ice cold double distilled water; from tissue; host or cells: crude synaptic membranes of Sprague Dawley rat cerebellum
T2 sequence (P62813 28-455): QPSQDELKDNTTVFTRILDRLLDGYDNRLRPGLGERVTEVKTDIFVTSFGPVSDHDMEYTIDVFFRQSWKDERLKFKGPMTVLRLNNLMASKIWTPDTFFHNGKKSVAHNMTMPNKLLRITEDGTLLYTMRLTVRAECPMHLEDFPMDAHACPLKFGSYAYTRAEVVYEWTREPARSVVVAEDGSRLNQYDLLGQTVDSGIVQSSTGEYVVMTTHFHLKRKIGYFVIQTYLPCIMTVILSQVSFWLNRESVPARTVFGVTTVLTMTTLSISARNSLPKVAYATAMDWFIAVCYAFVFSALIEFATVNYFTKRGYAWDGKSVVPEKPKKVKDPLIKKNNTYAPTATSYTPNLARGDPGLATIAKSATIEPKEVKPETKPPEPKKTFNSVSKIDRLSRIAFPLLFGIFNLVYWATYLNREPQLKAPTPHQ
T2 sequence (P18508 39-466): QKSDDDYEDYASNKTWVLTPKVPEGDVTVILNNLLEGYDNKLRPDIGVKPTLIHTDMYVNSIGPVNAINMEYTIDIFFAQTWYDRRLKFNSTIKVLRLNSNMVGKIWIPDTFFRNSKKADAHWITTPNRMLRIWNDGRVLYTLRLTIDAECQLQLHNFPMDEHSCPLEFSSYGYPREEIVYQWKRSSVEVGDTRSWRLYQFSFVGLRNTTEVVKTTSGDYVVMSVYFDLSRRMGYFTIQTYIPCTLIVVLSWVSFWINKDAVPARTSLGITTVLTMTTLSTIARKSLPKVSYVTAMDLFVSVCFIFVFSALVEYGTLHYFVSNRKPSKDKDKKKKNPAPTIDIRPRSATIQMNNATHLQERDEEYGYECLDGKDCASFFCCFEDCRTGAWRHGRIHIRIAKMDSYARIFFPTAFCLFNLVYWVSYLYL
Method: as §3
as §4, with “ligand.” for “ligand. The different indole derivatives were added in a volume of 50 μl in a concentration varying from 10^-9 to 10^-3 M. The results are reported in Table I hereinbelow.”

Sprague Dawley rats = assay: Elevated X maze test; type: in vivo, Sprague Dawley rat; details: for Entries in open arms, test after 10 min injection / Entries in open arms, test after 20 min injection / Entries in open arms, test after 30 min injection: 20 mg/kg i.v., rats; for behavioral output of rats in the elevated X maze test: in words
Method: The elevated X maze is a behavioral test to detect anxiolytic drugs in rodents. […] The plus-maze consists of two open arms (43×8 cm) and two similarly sized enclosed arms with 9 cm high walls, arranged so that the arms of the same type are opposite each other. There is a central square of 8 cm. The apparatus is elevated to a height of 10 cm and each arm is divided into 3 squares.
Sprague Dawley rats weighing 200-250 gr. were housed in a room with a 12 hour light: 12 hour dark cycle and were allowed free access to food and water. After an i.v. injection of different indole derivatives, the rats were kept separated for 10, 20 or 30 minutes before testing. The testing period commenced when each animal was placed onto the central square of the maze. The number of entries in each arm was then recorded for 5 minutes. The maze was cleaned with water after each trial. The number of entries in the open arms provided a measure of anxiolytic activity of the drugs.

[5] = target: T3, ^3 H-ZOLPIDEM binding (crude synaptic membrane) (Rattus norvegicus, UniProt P18508+P62813); assay: ^3 H-ZOLPIDEM binding, crude synaptic membranes; design: species or system Sprague Dawley rat; details: 2 nM ^3 H-ZOLPIDEM, rat cerebellum membranes
T3 construct: from tissue; host or cells: crude synaptic membranes of Sprague Dawley rat cerebellum
T3 sequence (P62813 28-455): as the sequence (P62813 28-455) above
T3 sequence (P18508 39-466): as the sequence (P18508 39-466) above
Method: as §3, §4

[6] = tested on: mitochondrial pregnenolone formation, C6-2B glioma cells; assay: Pregnenolone formation in glial mitochondria (C6-2B glioma cells); type: biochemical; details: for Effective concentration, maximal / EC50: C6 glial cell mitochondria, 15 minutes at 37° C.; for EC50: read-out: Effective concentration, 50%; for Stimulation %: pregnenolone formation, increase over the control
Method: The mixture was preincubated for 5 minutes at 37° C. The incubation mixture was extracted with 5 ml chloroform/methanol (2:1, vol/vol), and the organic phase was evaporated to dryness. Pregnenolone was measured by a specific radioimmunoassay using an antibody obtained from Radioassay Systems Laboratories, Carson, Calif.

Row | Structure (SMILES) | IC50 [1] | IC50 [2] | IC50 [3] | ^3 H-PK11195 / ^3 H-RO5-4864 [3] | IC50 [4] | IC50 [5] | EC50 [6] | binding to MBR in words ([3]; Tables I and II compared) | Entries in open arms, test after 10 min injection (Sprague Dawley rats) | Entries in open arms, test after 20 min injection (Sprague Dawley rats) | Entries in open arms, test after 30 min injection (Sprague Dawley rats) | behavioral output of rats in the elevated X maze test (Sprague Dawley rats) | Effective concentration, maximal [6] | intrinsic efficacy (pregnenolone formation) ([6]; in words) | Stimulation % [6]
1 | CCCN(CCC)C(=O)Cc1c(-c2cccc(Cl)c2)[nH]c2ccccc12 [compound 21] | 80 nM | > 1000 nM | 100 nM | 1.2 | > 1000 nM | – | – | – | 2 | 4 | 0 | increase the behavioral output | – | – | –
2 | CCCN(CCC)C(=O)C=Cc1c(-c2ccc(Cl)cc2)[nH]c2ccccc12 [compound 24] | 600 nM | – | 700 nM | 1.1 | > 1000 nM | > 1000 nM | – | – | 3 | 2 | 3 | increase the behavioral output | – | – | –
3 | CN(C)C(=O)Cc1c(-c2ccccc2)[nH]c2ccccc12 [Compound No. 7] | 600 nM | – | 600 nM | 1 | > 1000 nM | > 1000 nM | 10 nM | relatively high affinity | – | – | – | – | 10^-7 M | low intrinsic efficacy | 131%
4 | CCCN(CCC)C(=O)Cc1c(-c2ccc(Cl)cc2)n(C)c2ccccc12 [compound 22] | 200 nM | – | 200 nM | 1 | > 1000 nM | – | – | – | 3 | 2 | 6 | increase the behavioral output | 10^-8 M | – | 170%
5 | CCCN(CCC)C(=O)CCc1c(-c2ccc(Cl)cc2)[nH]c2ccc(Cl)cc12 [compound 11] | 120 nM | – | 180 nM | 1.5 | > 1000 nM | > 1000 nM | – | – | – | – | – | – | – | – | –
6 | Cc1ccc(-c2[nH]c3ccc(C)cc3c2CC(=O)N(C)C)cc1 [Compound No. 9] | 255 nM | – | > 1000 nM | > 3 | – | > 1000 nM | – | – | – | – | – | – | > 10^-6 M | – | none
7 | CCCN(CCC)C(=O)Cc1c(-c2ccc(F)cc2)[nH]c2ccccc12 [compound 20] | 50 nM | > 1000 nM | 100 nM | 2 | > 1000 nM | – | 0.33 nM | – | 3 | 2 | 6 | increase the behavioral output | 10^-9 M | – | 183%
8 | O=C(Cc1c(-c2ccccc2)[nH]c2ccccc12)N1CCCCC1 [Compound No. 3] | 59 nM | – | 84 nM | 1.4 | – | > 1000 nM | – | – | – | – | – | – | – | – | –
9 | CCCN(CCC)C(=O)Cc1c(-c2ccc(C)cc2)[nH]c2ccc(C)cc12 [Compound No. 8] | 41.5 nM | – | 68.5 nM | 1.6 | – | > 1000 nM | 33 nM | – | – | – | – | – | 10^-7 M | – | 220%
10 | c1ccc(-c2[nH]c3ccccc3c2CC2=NCCN2)cc1 [Compound No. 15] | > 1000 nM | – | > 1000 nM | – | > 1000 nM | – | – | – | – | – | – | – | – | – | –
11 | CCCN(CCC)C(=O)C(C)c1c(-c2ccc(Cl)cc2)[nH]c2ccccc12 (stereo not drawn) [compound 19] | > 1000 nM | – | > 1000 nM | – | > 1000 nM | – | – | – | 1 | – | – | increase the behavioral output | – | – | –

Now those with a lower IC50 [1], led by results:

Row | IC50 [1] | IC50 [2] | IC50 [3] | ^3 H-PK11195 / ^3 H-RO5-4864 [3] | IC50 [4] | IC50 [5] | EC50 [6] | binding to MBR in words ([3]; Tables I and II compared) | Structure (SMILES) | Entries in open arms, test after 10 min injection (Sprague Dawley rats) | Entries in open arms, test after 20 min injection (Sprague Dawley rats) | Entries in open arms, test after 30 min injection (Sprague Dawley rats) | behavioral output of rats in the elevated X maze test (Sprague Dawley rats) | Effective concentration, maximal [6] | intrinsic efficacy (pregnenolone formation) ([6]; in words) | Stimulation % [6]
12 | 40 nM | – | 30 nM | 0.75 | > 1000 nM | – | – | – | CCCN(CCC)C(=O)Cc1c2n(c3ccccc13)Cc1ccccc1-2 [Compound No. 16] | – | – | – | – | – | – | –
13 | 40 nM | – | 45 nM | 1.1 | > 1000 nM | > 1000 nM | – | – | CCCN(CCC)C(=O)Cc1c(-c2ccc(Cl)cc2)[nH]c2ccc(Cl)cc12 [Compound No. 6] | – | – | – | – | – | – | –
14 | 37.5 nM | – | 50 nM | 1.3 | > 1000 nM | – | – | – | CCCN(CCC)C(=O)Cc1c(-c2cccs2)[nH]c2ccc(Cl)cc12 [compound 17] | – | – | – | – | – | – | –
15 | 36 nM | – | 75 nM | 2 | > 1000 nM | – | – | – | CCCN(CCC)C(=O)Cc1c(-c2ccc(Br)cc2)[nH]c2ccccc12 [compound 18] | 2 | – | – | increase the behavioral output | – | – | –
16 | 32.5 nM | > 1000 nM | 57.5 nM | 1.8 | > 1000 nM | > 1000 nM | – | – | CCCCCCNC(=O)Cc1c(-c2ccccc2)[nH]c2ccccc12 [Compound No. 13] | 2 | 2 | 3 | increase the behavioral output | – | – | –
17 | 25.5 nM | > 1000 nM | 28.5 nM | 1.1 | > 1000 nM | > 1000 nM | – | – | CCCN(CCC)C(=O)Cc1c(-c2ccc(Cl)cc2)[nH]c2ccccc12 [compound 5] | – | – | – | – | – | – | –
18 | 14.5 nM | – | 24 nM | 1.6 | > 1000 nM | > 1000 nM | – | – | CCCN(CCC)C(=O)Cc1c(-c2cccs2)[nH]c2ccccc12 [Compound No. 10] | – | – | – | – | – | – | –
